In PubChem BioAssay (NCI):
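Interpolation was linear, between the two tested concentrations surrounding the appropriate level; five concentrations were tested over 48 hours in 96-well plates. TGI denotes the concentration required for complete inhibition of growth.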

What was measured:
Test in all cases: NCI-60 cell line screen, 48 h
HCT-15 colon = test system: HCT-15 colon
NCI-H460 lung = test system: NCI-H460 lung
OVCAR-8 ovarian = test system: OVCAR-8 ovarian
SF-295 CNS = test system: SF-295 CNS
M14 melanoma = test system: M14 melanoma
MOLT-4 leukemia = test system: MOLT-4 leukemia
MALME-3M melanoma = test system: MALME-3M melanoma
RXF 393 renal = test system: RXF 393 renal
HT29 colon = test system: HT29 colon
K-562 leukemia = test system: K-562 leukemia
SNB-19 CNS = test system: SNB-19 CNS
DLD-1 colon = test system: DLD-1 colon
ACHN renal = test system: ACHN renal
LXFL 529 NSCLC = test system: LXFL 529 NSCLC
SF-539 CNS = test system: SF-539 CNS
LOX IMVI melanoma = test system: LOX IMVI melanoma
U251 CNS = test system: U251 CNS
SNB-75 CNS = test system: SNB-75 CNS
SK-OV-3 ovarian = test system: SK-OV-3 ovarian
SN12C renal = test system: SN12C renal
OVCAR-5 ovarian = test system: OVCAR-5 ovarian
M19-MEL melanoma = test system: M19-MEL melanoma
XF 498 CNS = test system: XF 498 CNS
786-0 renal = test system: 786-0 renal
DMS 114 small cell lung = test system: DMS 114 small cell lung
NCI-H23 lung = test system: NCI-H23 lung
RPMI-8226 leukemia = test system: RPMI-8226 leukemia
HOP-62 NSCLC = test system: HOP-62 NSCLC
HCC-2998 colon = test system: HCC-2998 colon
UACC-62 melanoma = test system: UACC-62 melanoma
SF-268 CNS = test system: SF-268 CNS
SNB-78 CNS = test system: SNB-78 CNS
SR leukemia = test system: SR leukemia
TK-10 renal = test system: TK-10 renal
KM12 colon = test system: KM12 colon
NCI-H522 lung = test system: NCI-H522 lung
UO-31 renal = test system: UO-31 renal
EKVX NSCLC = test system: EKVX NSCLC
SK-MEL-28 melanoma = test system: SK-MEL-28 melanoma
CCRF-CEM leukemia = test system: CCRF-CEM leukemia
OVCAR-4 ovarian = test system: OVCAR-4 ovarian
A498 renal = test system: A498 renal
KM20L2 colon = test system: KM20L2 colon
HCT-116 colon = test system: HCT-116 colon
OVCAR-3 ovarian = test system: OVCAR-3 ovarian
UACC-257 melanoma = test system: UACC-257 melanoma
NCI-H226 lung = test system: NCI-H226 lung
SK-MEL-5 melanoma = test system: SK-MEL-5 melanoma
SK-MEL-2 melanoma = test system: SK-MEL-2 melanoma
HOP-18 NSCLC = test system: HOP-18 NSCLC
DMS 273 small cell lung = test system: DMS 273 small cell lung
A549 NSCLC = test system: A549 NSCLC
IGROV1 ovarian = test system: IGROV1 ovarian
CAKI-1 renal = test system: CAKI-1 renal
COLO 205 colon = test system: COLO 205 colon
SW-620 colon = test system: SW-620 colon
HL-60(TB) leukemia = test system: HL-60(TB) leukemia

Measured: TGI

OCC(O)C(OC1OC(CO)C(O)C(O)C1O)c1nn(-c2ccccc2)c2nc3cc(Cl)ccc3nc12 (stereo not given)
not listed: NCI-H226 lung | SK-MEL-5 melanoma | SK-MEL-2 melanoma | HOP-18 NSCLC | DMS 273 small cell lung | A549 NSCLC | IGROV1 ovarian | CAKI-1 renal | COLO 205 colon | SW-620 colon | HL-60(TB) leukemia
> 100 µM: all other assays above

COc1ccc(C2C(Cl)C(=O)N2NC(=O)Cc2ccccc2)cc1OC (stereo not given)
not listed: LXFL 529 NSCLC | SF-539 CNS | A498 renal
> 100 µM: all other assays above
